The source of these data is patent US20010051654A1, “Treatment of inflammatory and autoimmune diseases” (priority 1997, published 2001).

This experiment relates to actively sensitized Brown Norway rats. Description: Allergen-induced pulmonary leukocyte accumulation in actively sensitized Brown Norway rats (3b alone). It is filed as in vivo. The procedure:
Rats. Male Brown Norway rats were supplied by Harlan Olac Limited (Bicester, Oxon, UK) and delivered within the weight range of 180-200 g. Following acclimatization for at least five days, animals were actively sensitized over a 3-week period and were within the weight range 250-300 g at the time of allergen exposure. Food and water were provided ad libitum.
Sensitization. Ovalbumin (OA; 10 μg) mixed with aluminum hydroxide gel (10 mg) will be injected (0.5 mL, i.p.) into Brown Norway rats and repeated 7 and 14 days later.
Drug Treatment. On day 21, sensitized rats were anaesthetized (halothane 5% in O2) and 3b, dexamethasone, or vehicle (lactose) was instilled via a cannula placed directly into the trachea at 1 hour prior to OA exposure. This procedure was repeated at 24 hours and 48 hours after OA exposure.
Challenge. Following recovery, sensitized animals were restrained in plastic tubes and exposed (60 min) to an aerosol of OA (10 mg/mL) using a nose-only exposure system. Animals were sacrificed 72 hours later with pentobarbital (250 mg/kg i.p.).
Analysis. The lungs were lavaged using 3 aliquots (4 mL) of Hank's solution (HBSS x 10, 100 mL; EDTA 100 mM, 100 mL; HEPES 1M, 10 mL made to […] with water); recovered cells were pooled and the total volume of recovered fluid was adjusted to 12 mL by addition of Hank's solution. Total cells were counted (Sysmex Microcell Counter F-500, TOPA Medical Electronics Ltd., Japan). Smears were made by diluting recovered fluid (to approximately 10^6 cells/mL) and spinning an aliquot (100 μL) in a centrifuge (Cytospin, Shandon, UK). Smears were air dried, fixed using a solution of fast green in methanol (2 mg/L) for 5 seconds and stained with eosin G (5 seconds) and thiazine (5 seconds) (Diff-Quik, Baxter Dade Ltd, Switzerland) in order to differentiate eosinophils, neutrophils, macrophages and lymphocytes. A total of 500 cells per smear were counted by light microscopy under oil immersion (x 1000).

Setting [1] is: 0.1 and 0.3 mg/kg i.t. 1 h before, 24 h and 48 h after OA, 72 h.
[2] abbreviates: dose dependence, 72 hours after aerosolized ovalbumin.

Turning to `CCCC1C(=O)NC2(C(O)C(C)C)OC(=O)C12` (stereo not drawn) [Compound 3b, 7-n-propyl-clasto-lactacystin β-lactone], under setting [1], the “influx of eosinophils in bronchoalveolar lavage fluid” value is “reduced” and the “influx of total leukocytes in bronchoalveolar lavage fluid” value is given as “reduced”. For the same compound, where the note is “all doses i.t., 72 h after OA”, the “lymphocyte count in bronchoalveolar lavage fluid” value is reported as “significant decrease”. Besides, under setting [2], the “eosinophil count in bronchoalveolar lavage fluid (FIG. 4)” value is reported as “dose dependent inhibition” and the “leukocyte count in bronchoalveolar lavage fluid (FIG. 3)” value is “dose-dependent reduction”.
